Data as given in patent US20110230493A1, “1-OXA-8-Azaspiro [4,5] Decabe-8-Carboxamide Compounds as FAAH Inhibitors” (Pfizer Inc., priority 2008, published 2011).

Columns and labels:
rat FAAH = biological target: T1, rat FAAH (Rattus norvegicus, UniProt P97612); test: FAAH assay, rat FAAH enzyme inactivation (kinact/Ki); assay type: biochemical; details: pH 7.4, in vitro, oleamide 50 μM, 30° C., read-out: rFAAH kinact/Ki
T1 construct: made in house; host or cells: E. coli
T1 sequence (P97612 1-579): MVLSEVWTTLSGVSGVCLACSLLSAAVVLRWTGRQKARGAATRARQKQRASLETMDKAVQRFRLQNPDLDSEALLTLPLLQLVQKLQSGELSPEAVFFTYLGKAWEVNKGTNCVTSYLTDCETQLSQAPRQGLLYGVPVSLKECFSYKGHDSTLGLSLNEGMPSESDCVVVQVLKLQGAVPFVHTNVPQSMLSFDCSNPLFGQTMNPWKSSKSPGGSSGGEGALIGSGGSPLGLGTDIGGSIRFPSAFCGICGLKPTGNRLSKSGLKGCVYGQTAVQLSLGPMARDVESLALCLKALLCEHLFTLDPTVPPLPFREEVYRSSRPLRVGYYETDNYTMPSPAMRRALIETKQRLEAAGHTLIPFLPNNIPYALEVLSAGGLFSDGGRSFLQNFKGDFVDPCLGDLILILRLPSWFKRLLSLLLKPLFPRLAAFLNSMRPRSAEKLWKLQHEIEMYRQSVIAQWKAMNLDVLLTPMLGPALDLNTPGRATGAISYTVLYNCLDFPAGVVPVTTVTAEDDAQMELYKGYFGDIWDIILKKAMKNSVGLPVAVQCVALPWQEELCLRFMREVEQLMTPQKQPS
Procedure: (§1) The FAAH assay was carried out in 384-well clear polystyrene plates (Evergreen Scientific) in a total volume of 50 μl per well in a manner similar to that described by Mileni et al., Proc. Nat. Acad. Sci. 2008, 105, 12820-12824. All percents are by volume. Serial dilutions of compound were initially prepared in 100% DMSO, and then diluted two-fold into HPLC-grade H2O to give 50% DMSO. To each well, was placed the reaction mixture (40 μl) containing 1-4 nM FAAH, 50 mM NaPi, pH 7.4, 3 mM α-ketoglutarate, 0.15 mM NADH, 7.5 U/ml glutamate dehydrogenase, 2 mM ADP, 1 mM EDTA, and 0.1% Triton X-100 (The concentration shown for each component is the final concentration in the assay). To this mixture, was added 5 μl of a compound of Examples 1 to 101 at various concentrations in 50% DMSO (or 5 μl 50% DMSO for controls). This was immediately followed by the addition of 5 μl oleamide (500 μM) dissolved in 75% EtOH/25% DMSO and the reaction mixture was mixed for 1.5 min. The final concentrations of DMSO and EtOH in the assay were each 7.5%. The reactions were incubated at 30° C. and the absorbance at 340 nm was collected over a period of 90 min with readings taken in 30-second intervals using SpectraMax Plus^384 Microplate Spectrophotometer (Molecular Devices, Sunnyvale, Calif.). The human FAAH and rat FAAH used in the assay was prepared as described in the patent application WO 2006/067613 using wild-type E. coli cells transformed in St. Louis, Mo., U.S.A. The purity of the enzyme was greater than 98% based on an analysis by SDS-polyacrylamide gel electrophoresis followed by Coomassie Blue staining.
(§2) Reaction progress curves were corrected for the non-enzymatic oxidation of NADH by subtraction of absorbancies at each time point obtained from control reactions containing no FAAH enzyme. The loss of enzyme activity as a function of time is well-described by the following mathematical equation (1) for a mono-exponential decay: […]
(§3) where At represents the absorbance at time t, A0 represents the absorbance at time zero, and C represents a constant. Observed rates of enzyme inactivation (kobs) were determined from the non-linear reaction progress curves by fitting the corrected absorbancies to an equation for a mono-exponential decay using the third-party Microsoft Excel plug-in, XLfit (IDBS Limited). Secondary plots of kobs vs. inhibitor concentration were prepared from kobs values obtained from progress curves. Second-order rates for enzyme inactivation, expressed as kinact/Ki (M^−1 s^−1), were calculated from the slopes from linear regression analysis of the secondary plot of kobs vs. inhibitor concentration as defined in following equation (2), where [I]<<Ki:
(§4) The concentration of substrate in the assay was equal to the Km for oleamide of 50 μM. Therefore, reported kinact/Ki values are obtained by multiplying resulting slopes by a factor of two (i.e. slope=kinact/(Ki*2)).
(§5) Table 1, below, lists human FAAH (hFAAH) and rat FAAH (rFAAH) enzyme inhibition values for Examples 1-101 as a ratio of kinact/Ki (M^−1 s^−1).

human FAAH = biological target: T2, human FAAH (Homo sapiens, UniProt O00519); test: FAAH assay, human FAAH enzyme inactivation (kinact/Ki); assay type: biochemical; details: pH 7.4, in vitro, oleamide 50 μM, 30° C., read-out: hFAAH kinact/Ki
T2 construct: made in house; host or cells: E. coli
T2 sequence (O00519 1-579): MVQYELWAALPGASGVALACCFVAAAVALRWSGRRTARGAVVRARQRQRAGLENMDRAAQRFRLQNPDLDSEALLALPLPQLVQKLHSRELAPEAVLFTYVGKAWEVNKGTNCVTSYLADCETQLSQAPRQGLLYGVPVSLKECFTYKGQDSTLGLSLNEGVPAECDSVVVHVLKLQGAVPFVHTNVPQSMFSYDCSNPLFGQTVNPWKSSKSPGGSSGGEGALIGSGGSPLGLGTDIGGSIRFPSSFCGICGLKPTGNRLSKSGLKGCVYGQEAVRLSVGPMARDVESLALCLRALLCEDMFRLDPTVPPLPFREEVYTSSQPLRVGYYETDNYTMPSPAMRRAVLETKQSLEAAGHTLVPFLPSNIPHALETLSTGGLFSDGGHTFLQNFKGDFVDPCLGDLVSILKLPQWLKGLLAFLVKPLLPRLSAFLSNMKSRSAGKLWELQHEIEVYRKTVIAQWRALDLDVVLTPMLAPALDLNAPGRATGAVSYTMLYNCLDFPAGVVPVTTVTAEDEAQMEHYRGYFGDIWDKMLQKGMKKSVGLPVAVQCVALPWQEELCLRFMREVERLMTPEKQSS
Procedure: as §1, §2, §3, §4, §5

Row | Structure (SMILES) | kinact/KI (rat FAAH) | kinact/KI (human FAAH)
1 | Cc1noc(NC(=O)N2CCC3(CC2)CC(c2ccc(Cl)c(F)c2)CO3)c1C (racemic) [Example 26, (3RS)-3-(4-chloro-3-fluorophenyl)-N-(3,4-dimethylisoxazol-5-yl)-1-oxa-8-azaspiro[4.5]decane-8-carboxamide] | 2520 M⁻¹ s⁻¹ | 2140 M⁻¹ s⁻¹
2 | Cc1noc(NC(=O)N2CCC3(CC2)CC(c2ccc(OCc4ccc(F)cc4)c(Cl)c2)CO3)c1C (racemic) [Example 19, (3RS)-3-{3-chloro-4-[(4-fluorobenzyl)oxy]phenyl}-N-(3,4-dimethylisoxazol-5-yl)-1-oxa-8-azaspiro[4.5]decane-8-carboxamide] | 7120 M⁻¹ s⁻¹ | 6710 M⁻¹ s⁻¹
3 | Cc1noc(NC(=O)N2CCC3(CC2)CC(c2cccc(Cl)c2)CO3)c1C (racemic) [Example 14, (3RS)-3-(3-chlorophenyl)-N-(3,4-dimethylisoxazol-5-yl)-1-oxa-8-azaspiro[4.5]decane-8-carboxamide] | 2670 M⁻¹ s⁻¹ | 2040 M⁻¹ s⁻¹
4 | O=C(Nc1noc2ccccc12)N1CCC2(CC1)CC(c1cccc(Oc3ccc(Cl)cn3)c1)CO2 (racemic) [Example 101, (3RS)—N-1,2-benzisoxazol-3-yl-3-{3-[(5-chloropyridin-2-yl)oxy]phenyl}-1-oxa-8-azaspiro[4.5]decane-8-carboxamide] | 8330 M⁻¹ s⁻¹ | 1780 M⁻¹ s⁻¹
5 | Cc1noc(NC(=O)N2CCC3(CC2)CC(c2cccc(-c4ccc(Cl)cc4)c2)CO3)c1C (racemic) [Example 55, (3RS)-3-(4′-chlorobiphenyl-3-yl)-N-(3,4-dimethylisoxazol-5-yl)-1-oxa-8-azaspiro[4.5]decane-8-carboxamide] | 1160 M⁻¹ s⁻¹ | 2070 M⁻¹ s⁻¹
6 | Cc1noc(NC(=O)N2CCC3(CC2)CC(c2ccc(OCc4cccc(F)c4)cc2)CO3)c1C (racemic) [Example 22, (3RS)-N-(3,4-dimethylisoxazol-5-yl)-3-{4-[(3-fluorobenzyl)oxy]phenyl}-1-oxa-8-azaspiro[4.5]decane-8-carboxamide] | 3630 M⁻¹ s⁻¹ | 6030 M⁻¹ s⁻¹
7 | Cc1noc(NC(=O)N2CCC3(CC2)CC(c2ccc4c(c2)OCO4)CO3)c1C (racemic) [Example 24, (3RS)-3-(1,3-benzodioxol-5-yl)-N-(3,4-dimethylisoxazol-5-yl)-1-oxa-8-azaspiro[4.5]decane-8-carboxamide] | 431 M⁻¹ s⁻¹ | 788 M⁻¹ s⁻¹
8 | Cc1noc(NC(=O)N2CCC3(CC2)CC(c2cccc(-c4ccc(F)cc4)c2)CO3)c1C (racemic) [Example 54, (3RS)-N-(3,4-dimethylisoxazol-5-yl)-3-(4′-fluorobiphenyl-3-yl)-1-oxa-8-azaspiro[4.5]decane-8-carboxamide] | 1110 M⁻¹ s⁻¹ | 2040 M⁻¹ s⁻¹
9 | Cc1noc(NC(=O)N2CCC3(CC2)C[C@H](c2cccc(-c4ccc(OC(F)(F)F)cc4)c2)CO3)c1C [Example 64, (3R)—N-(3,4-dimethylisoxazol-5-yl)-3-[4′-(trifluoromethoxy)biphenyl-3-yl]-1-oxa-8-azaspiro[4.5]decane-8-carboxamide] | 588 M⁻¹ s⁻¹ | 1490 M⁻¹ s⁻¹
10 | Cc1noc(NC(=O)N2CCC3(CC2)CC(c2ccc4ccccc4c2)CO3)c1C (racemic) [Example 25, (3RS)-N-(3,4-dimethylisoxazol-5-yl)-3-(2-naphthyl)-1-oxa-8-azaspiro[4.5]decane-8-carboxamide] | 2240 M⁻¹ s⁻¹ | 2090 M⁻¹ s⁻¹
11 | Cc1noc(NC(=O)N2CCC3(CC2)CC(c2noc(-c4ccc(C(F)(F)F)cc4)n2)CO3)c1C (racemic) [Example 74, (3RS)—N-(3,4-dimethylisoxazol-5-yl)-3-{5-[4-(trifluoromethyl)phenyl]-1,2,4-oxadiazol-3-yl}-1-oxa-8-azaspiro[4.5]decane-8-carboxamide] | 1140 M⁻¹ s⁻¹ | 2380 M⁻¹ s⁻¹
12 | Cc1noc(NC(=O)N2CCC3(CC2)CC(c2ccc(OCc4cccc(Cl)c4)c(Cl)c2)CO3)c1C (racemic) [Example 21, (3RS)-3-{3-chloro-4-[(3-chlorobenzyl)oxy]phenyl}-N-(3,4-dimethylisoxazol-5-yl)-1-oxa-8-azaspiro[4.5]decane-8-carboxamide] | 3550 M⁻¹ s⁻¹ | 3100 M⁻¹ s⁻¹
13 | Cc1noc(NC(=O)N2CCC3(CC2)CC(c2ccc(OCc4cccc(C(F)(F)F)n4)cc2)CO3)c1C (racemic) [Example 29, (3RS)-N-(3,4-dimethylisoxazol-5-yl)-3-(4-{[6-(trifluoromethyl)pyridin-2-yl]methoxy}phenyl)-1-oxa-8-azaspiro[4.5]decane-8-carboxamide] | 3230 M⁻¹ s⁻¹ | 2110 M⁻¹ s⁻¹
14 | Cc1noc(NC(=O)N2CCC3(CC2)CC(c2ccc(OCc4ccc(F)cc4)cc2)CO3)c1C (racemic) [Example 17, (3RS)-N-(3,4-dimethylisoxazol-5-yl)-3-{4-[(4-fluorobenzyl)oxy]phenyl}-1-oxa-8-azaspiro[4.5]decane-8-carboxamide] | 6690 M⁻¹ s⁻¹ | 6960 M⁻¹ s⁻¹
15 | Cc1noc(NC(=O)N2CCC3(CC2)C[C@H](c2cccc(-c4ccc(C(F)(F)F)cn4)c2)CO3)c1C [Example 98, (3R)—N-(3,4-dimethylisoxazol-5-yl)-3-{3-[5-(trifluoromethyl)pyridin-2-yl]phenyl}-1-oxa-8-azaspiro[4.5]decane-8-carboxamide] | 1630 M⁻¹ s⁻¹ | 2820 M⁻¹ s⁻¹
16 | Cc1noc(NC(=O)N2CCC3(CC2)CC(c2ccc(OCc4ccccc4)c(Cl)c2)CO3)c1C (racemic) [Example 20, (3RS)-3-[4-(benzyloxy)-3-chlorophenyl]-N-(3,4-dimethylisoxazol-5-yl)-1-oxa-8-azaspiro[4.5]decane-8-carboxamide] | 4390 M⁻¹ s⁻¹ | 3970 M⁻¹ s⁻¹
17 | Cc1noc(NC(=O)N2CCC3(CC2)CC(c2cccc(C(F)(F)F)c2)CO3)c1C (racemic) [Example 65, (3RS)—N-(3,4-dimethylisoxazol-5-yl)-3-[3-(trifluoromethyl)phenyl]-1-oxa-8-azaspiro[4.5]decane-8-carboxamide] | 2630 M⁻¹ s⁻¹ | 1100 M⁻¹ s⁻¹
18 | Cc1noc(NC(=O)N2CCC3(CC2)CC(F)(c2cc(F)cc(Cl)c2)CO3)c1C (racemic) [Example 100, (3RS)-3-(3-chloro-5-fluorophenyl)-N-(3,4-dimethylisoxazol-5-yl)-3-fluoro-1-oxa-8-azaspiro[4.5]decane-8-carboxamide] | 1120 M⁻¹ s⁻¹ | 871 M⁻¹ s⁻¹
